# ChEMBL document CHEMBL6071176, “Development of Phloroglucinol-Linked Tris-Quaternary Ammonium Salt Antimicrobial Peptide Mimics with Low Cytotoxicity and Broad-Spectrum Antibacterial Activity” (J Med Chem, 2024)
# Active and inactive are the calls of the source. No cut-off for these calls is given here.
# Legend:
# [1] = test system: Escherichia coli; test: Bactericidal activity against early exponential phase Escherichia coli assessed as bacterial killing at 3 ug/ml incubated for 12 hrs by time-kill assay; assay type: functional, organism-based; settings: dose 3.0 µg/ml
# [2] = test system: Escherichia coli; test: Resistance development in Escherichia coli assessed as increase in MIC measured within 20 passages of continues culture; assay type: functional
# [3] = Selectivity index, ratio of HC50 for sheep red blood cells to MIC for Staphylococcus aureus; assay type: toxicity, cell-based, RBC; settings: read-out: Selectivity Index
# [4] = Toxicity in female SPF Kunming mouse assessed as change in RBC count at 20 mg/kg/day, ip measured after 24 hrs; assay type: organism-based; settings: in vivo
# [5] = test system: Staphylococcus aureus; test: Antimicrobial activity against Staphylococcus aureus assessed as inhibition of growth incubated for 18 hrs by CLSI guidelines based assay; assay type: functional
# [6] = Toxicity in female SPF Kunming mouse assessed as change in HBG count at 20 mg/kg/day, ip measured after 24 hrs; assay type: organism-based; settings: in vivo
# [7] = Hemolytic activity in sheep red blood cells measured after 1 hr incubation; assay type: toxicity, cell-based, Ovis aries, Erythrocyte
# [8] = test system: Staphylococcus aureus; test: Down-regulation of pyridoxal-phosphate-dependent enzyme in Staphylococcus aureus at 0.25 ug/ml and incubated for 4 hrs by Transcriptome analysis; assay type: functional, organism-based; settings: dose 0.25 µg/ml
# [9] = test system: Cell membrane; test: Induction of membrane damage in Escherichia coli assessed as nucleic acid leakage measured at 0.5 to 2 times of MIC by microplate spectrophotometry; assay type: subcellular; settings: TDE = time-dependent effect
# [10] = Toxicity in female SPF Kunming mouse assessed as change in HCT count at 20 mg/kg/day, ip measured after 24 hrs; assay type: organism-based; settings: in vivo
# [11] = test system: Staphylococcus aureus; test: (§1) In vivo antibacterial activity against methicillin-resistant Staphylococcus aureus subcutaneously infected in SPF female Kunming mouse model assessed as bacteria count in dissected mouse at 10 mg/kg/day injected into blister after 6 hrs of infection measured after 6 consecutive treatments; assay type: functional, organism-based
# [12] = Cytotoxicity against human Gastric mucosal cells measured after 24 hrs by CCK-8 assay; assay type: toxicity, cell-based, Gastric mucosal cell
# [13] = test system: Cell membrane; test: Induction of membrane damage in Staphylococcus aureus assessed as nucleic acid leakage measured at 0.5 to 2 times of MIC by microplate spectrophotometry; assay type: subcellular; settings: TDE = time-dependent effect
# [14] = test system: Staphylococcus aureus; test: Anti-biofilim activity against Staphylococcus aureus biofilm assessed bacterial survival rate at 4 ug/ml measured after 24 hrs incubation; assay type: functional
# [15] = test system: Staphylococcus aureus; test: Induction of ROS level in Staphylococcus aureus assessed as increase in intracellular ROS level by measuring fold increase in fluorescent intensity at 0.5 ug/ml measured after 4.5 hrs by ROS-sensitive fluorescent probe DCF-DA staining based assay; assay type: functional; settings: dose 0.5 µg/ml
# [16] = test system: Staphylococcus aureus; test: Down-regulation of aspartate/ornithine carbamoyltransferase in Staphylococcus aureus at 0.25 ug/ml and incubated for 4 hrs by Transcriptome analysis; assay type: functional, organism-based; settings: dose 0.25 µg/ml
# [17] = test system: Staphylococcus aureus; test: Down-regulation of thiamine pyrophosphate enzyme in Staphylococcus aureus at 0.25 ug/ml and incubated for 4 hrs by Transcriptome analysis; assay type: functional, organism-based; settings: dose 0.25 µg/ml
# [18] = Toxicity in female SPF Kunming mouse assessed as change in WBC count at 20 mg/kg/day, ip measured after 24 hrs; assay type: organism-based; settings: in vivo
# [19] = test system: Staphylococcus aureus; test: Anti-microbial activity against Staphylococcus aureus assessed as bacterial growth inhibition in presence of PE (exogenous bacterial cell membrane component) measured after 18 hrs; assay type: functional, organism-based
# [20] = test system: Staphylococcus aureus; test: Bactericidal activity against early exponential phase Staphylococcus aureus assessed as bacterial killing at 3 ug/ml incubated for 4 hrs by time-kill assay; assay type: functional, organism-based; settings: dose 3.0 µg/ml
# [21] = test system: Staphylococcus aureus; test: Up-regulation of quorum sensing pathway genes in Staphylococcus aureus at 0.25 ug/ml and incubated for 4 hrs by Transcriptome analysis; assay type: functional, organism-based; settings: dose 0.25 µg/ml
# [22] = Toxicity in female SPF Kunming mouse assessed as survival rate at 200 mg/kg/day, sc measured after 24 hrs; assay type: organism-based; settings: in vivo
# [23] = test system: Stenotrophomonas maltophilia; test: Antimicrobial activity against Stenotrophomonas maltophilia assessed as inhibition of growth incubated for 18 hrs by CLSI guidelines based assay; assay type: functional
# [24] = Hemolytic activity in Red blood cells (unknown origin) assessed as hemolytic rate at 1280 ug/ml relative to control; assay type: toxicity, cell-based, Erythrocyte; settings: at 1280 µg/mL, read-out: Activity
# [25] = Toxicity in female SPF Kunming mouse assessed as pathological changes in kidney at 200 mg/kg/day, sc measured after 24 hrs by hematoxylin and eosin staining based assay; assay type: organism-based; settings: in vivo
# [26] = test system: Staphylococcus aureus; test: Antibacterial activity against methicillin-resistant Staphylococcus aureus assessed as inhibition of bacterial growth measured immediately after addition in presence of plasma; assay type: functional, organism-based
# [27] = test system: Cell membrane; test: Induction of Cytoplasmic membrane depolarization in Staphylococcus aureus assessed as increase in fluorescence intensity measured at 6 times of MIC measured after 4 hrs by DiSC3(5) dye-based fluorescence assay; assay type: subcellular
# [28] = test system: Staphylococcus aureus; test: Bactericidal activity against Staphylococcus aureus assessed as bacterial killing in presence of 50% plasma; assay type: functional, organism-based
# [29] = Toxicity in female SPF Kunming mouse assessed as change in CREA level at 20 mg/kg/day, ip measured after 24 hrs; assay type: organism-based; settings: in vivo
# [30] = test system: Staphylococcus aureus; test: Antibacterial activity against NDM-1 gene-resistant Staphylococcus aureus assessed as inhibition of bacterial growth incubated for 18 hrs by CLSI guidelines based assay; assay type: functional
# [31] = test system: Staphylococcus aureus; test: Antibacterial activity against methicillin-resistant Staphylococcus aureus assessed as inhibition of bacterial growth measured after 6 hrs in presence of plasma; assay type: functional, organism-based
# [32] = test system: Staphylococcus aureus; test: Anti-microbial activity against Staphylococcus aureus assessed as bacterial growth inhibition in presence of CL (exogenous bacterial cell membrane component) measured after 18 hrs; assay type: functional, organism-based
# [33] = Toxicity in female SPF Kunming mouse assessed as pathological changes in heart at 200 mg/kg/day, sc measured after 24 hrs by hematoxylin and eosin staining based assay; assay type: organism-based; settings: in vivo
# [34] = test system: Staphylococcus aureus; test: Anti-microbial activity against Staphylococcus aureus assessed as bacterial growth inhibition in presence of LPS (exogenous bacterial cell membrane component) measured after 18 hrs; assay type: functional, organism-based
# [35] = test system: Staphylococcus aureus; test: as §1, with “improvement” for “bacteria count”, “inflammatory cell infiltration in skin” for “dissected mouse”, “at 5 to” for “at”, “treatments by H and E staining based assay” for “treatments”; assay type: functional, organism-based; settings: dose 5-10 mg/kg/day, route iv
# [36] = Toxicity in female SPF Kunming mouse assessed as change in UREA level at 20 mg/kg/day, ip measured after 24 hrs; assay type: organism-based; settings: in vivo
# [37] = test system: Staphylococcus aureus; test: Induction of morphological changes in Staphylococcus aureus assessed as wrinkled/cracked surface at 4 ug/ml incubated for 4 hrs by Scanning electron microscopy (SEM); assay type: functional, organism-based; settings: dose 4.0 µg/ml
# [38] = test system: Escherichia coli; test: Bactericidal activity against late exponential phase Escherichia coli assessed as bacterial elimination at 8 ug/ml incubated for 6 to 8 hrs by time-kill assay; assay type: functional; settings: dose 8 µg/ml; time 6-8 hrs
# [39] = test system: Staphylococcus aureus; test: Antibacterial activity against methicillin-resistant Staphylococcus aureus assessed as inhibition of bacterial growth measured after 3 hrs in presence of plasma; assay type: functional, organism-based
# [40] = test system: Staphylococcus aureus; test: Anti-biofilim activity against Staphylococcus aureus biofilm assessed bacterial survival rate at 8 ug/ml measured after 24 hrs incubation; assay type: functional
# [41] = test system: Staphylococcus aureus; test: In vivo antibacterial activity against methicillin-resistant Staphylococcus aureus subcutaneously infected in SPF female Kunming mouse model assessed as reduction wound at 5 mg/kg/day injected into blister after 6 hrs of infection measured after 6 consecutive treatments; assay type: functional
# [42] = test system: Staphylococcus aureus; test: Anti-biofilim activity against Staphylococcus aureus biofilm assessed bio-film thickness at 32 ug/ml measured after 24 hrs incubation by SYTO 9 staining based […] laser scanning microscopy (CLSM) (reference value: 29.5 microm); assay type: functional; settings: dose 32 µg/ml
compound,measurement,setting,value
CCCCCCCC[N+](C)(C)CCCCOc1cc(OCCCC[N+](C)(C)CCCCCCCC)cc(OCCCC[N+](C)(C)CCCCCCCC)c1.[Br-].[Br-].[Br-],Activity,[1],Active
same,MIC,[2],1 µg/mL
same,selectivity ratio,[3],> 2560
same,Activity,[4],Non-Toxic
same,MIC,[5],0.5 µg/mL
same,Activity,[6],Non-Toxic
same,HC50 at 1 h,[7],> 1280 µg/mL
same,Activity,[8],Active
same,Activity,[9],Tde
same,Activity,[10],Non-Toxic
same,Activity,[11],Active
same,CC50 at 24 h,[12],< 153 µg/mL
same,Activity,[13],Tde
same,survival at 4 µg/mL,[14],2.3%
same,fold change (FC),[15],3
same,Activity,[16],Active
same,Activity,[17],Active
same,Activity,[18],Non-Toxic
same,Activity,[19],Active
same,Activity,[20],Active
same,Activity,[21],Active
same,survival at 24 h,[22],100%
same,MIC,[23],2 µg/mL
same,hemolysis at 1280 ug/ml,[24],< 5%
same,Activity,[25],Non-Toxic
same,Activity,[26],Active
same,Activity,[27],Active
same,Activity,[28],Active
same,Activity,[29],Non-Toxic
same,MIC90,[30],2 µg/mL
same,Activity,[31],Active
same,Activity,[32],Active
same,Activity,[33],Non-Toxic
same,Activity,[34],inactive
same,Activity,[35],Active
same,Activity,[36],Non-Toxic
same,Activity,[37],Active
same,Activity,[38],100%
same,Activity,[39],Active
same,survival at 8 µg/mL,[40],0.61%
same,Activity,[41],251188.6 CFU
same,Activity,[42],14.7 um
